Data taken from patent publication US20190307776A1, “AZA-S[…] HUMAN IMMUNODEFICIENCY VIRUS REPLICATION” (priority 2016, published 2019).

Tested on: recombinant NL4-3 virus
Assay: HIV cell culture assay
Format: cell-based
Details: Human immunodeficiency virus 1, NL43, MT2
Method in brief: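 Antiviral activity measured in MT-2 cells infected 4–5 days with NL4-3 carrying Renilla luciferase in place of part of nef plus Gag P373S, in the presence of serial inhibitor dilutions. Read-out was luciferase activity by Dual Luciferase lysis/substrate mix.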

`C=C(C)[C@@H]1CC[C@]2(CO)CC[C@]3(C)[C@H](CC[C@@H]4[C@@]5(C)CCN(C(=O)CCC(=O)O)C(C)(C)C5CC[C@]43C)[C@@H]12` (stereo partly drawn) [Example 9, 4-((6aR,6bR,8aS,11R,11aR,11bR,13aR,13bR)-8a-(hydroxymethyl)-4,4,6a,6b,13b-pentamethyl-11-(prop-1-en-2-yl)icosahydro-3H-cyclopenta[5,6]naphtho[2,1-f]isoquinolin-3-yl)-4-oxobutanoic acid] and `C=C(C)[C@@H]1CC[C@]2(CO)CC[C@]3(C)[C@H](CC[C@@H]4[C@@]5(C)CCN(C(=O)C(=O)O)C(C)(C)C5CC[C@]43C)[C@@H]12` (stereo partly drawn) [Example 6, 2-((6aR,6bR,8aS,11R,11aR,11bR,13aR,13bR)-8a-(hydroxymethyl)-4,4,6a,6b,13b-pentamethyl-11-(prop-1-en-2-yl)icosahydro-3H-cyclopenta[5,6]naphtho[2,1-f]isoquinolin-3-yl)-2-oxoacetic acid] are within 1.5-fold of each other in EC50: 2.76 µM for the first, 4 µM for the second.

`C=C(C)[C@@H]1CC[C@]2(CO)CC[C@]3(C)[C@H](CC[C@@H]4[C@@]5(C)CCN(S(=O)(=O)c6ccc(CC(=O)O)cc6)C(C)(C)C5CC[C@]43C)[C@@H]12` (stereo partly drawn) [Example 19, 2-(4-(((6aR,6bR,8aS,11R,11aR,11bR,13aR,13bR)-8a-(hydroxymethyl)-4,4,6a,6b,13b-pentamethyl-11-(prop-1-en-2-yl)icosahydro-3H-cyclopenta[5,6]naphtho[2,1-f]isoquinolin-3-yl)sulfonyl)phenyl)acetic acid] and `C=C(C)[C@@H]1CC[C@]2(CO)CC[C@]3(C)[C@H](CC[C@@H]4[C@@]5(C)CCCN(S(=O)(=O)c6ccc(CC(=O)O)cc6)C(C)(C)C5CC[C@]43C)[C@@H]12` (stereo partly drawn) [Example 15, 2-(4-(((7aR,7bR,9aS,12R,12aR,12bR,14aR,14bR)-9a-(hydroxymethyl)-5,5,7a,7b,14b-pentamethyl-12-(prop-1-en-2-yl)icosahydrocyclopenta[7,8]phenanthro[2,1-c]azepin-4(1H)-yl)sulfonyl)phenyl)acetic acid] cannot be ordered by EC50: > 8 µM for the first, > 8 µM for the second.

Going from `C=C(C)[C@@H]1CC[C@]2(CNCCCN3CCS(=O)(=O)CC3)CC[C@]3(C)[C@H](CC[C@@H]4[C@@]5(C)CCN(C(=O)/C=C/C(=O)O)C(C)(C)[C@@H]5CC[C@]43C)[C@@H]12` [Example 32, (E)-4-((4aR,6aR,6bR,8aS,11R,11aR,11bR,13aR,13bR)-8a-(((3-(1,1-dioxidothiomorpholino)propyl)amino)methyl)-4,4,6a,6b,13b-pentamethyl-11-(prop-1-en-2-yl)hexadecahydro-1H-cyclopenta[5,6]naphtho[2,1-f]isoquinolin-3(2H,4H,13bH)-yl)-4-oxobut-2-enoic acid] to `C=C(C)[C@@H]1CC[C@]2(CNCCCN3CCS(=O)(=O)CC3)CC[C@]3(C)[C@H](CC[C@@H]4[C@@]5(C)CCN(CC(=O)NC(C)(C)C(=O)O)C(C)(C)[C@@H]5CC[C@]43C)[C@@H]12` [Example 35, 2-(2-((4aR,6aR,6bR,8aS,11R,11aR,11bR,13aR,13bR)-8a-(((3-(1,1-dioxidothiomorpholino)propyl)amino)methyl)-4,4,6a,6b,13b-pentamethyl-11-(prop-1-en-2-yl)hexadecahydro-1H-cyclopenta[5,6]naphtho[2,1-f]isoquinolin-3(2H,4H,13bH)-yl)acetamido)-2-methylpropanoic acid], the EC50 rises from 0.3 µM to > 3 µM. The first is the more potent here.

Compared with `C=C(C)[C@@H]1CC[C@]2(CNCCCN3CCS(=O)(=O)CC3)CC[C@]3(C)[C@H](CC[C@@H]4[C@@]5(C)CCN(C(=O)CC6(CC(=O)O)CCCC6)C(C)(C)[C@@H]5CC[C@]43C)[C@@H]12` [Example 26, 2-(1-(2-((4aR,6aR,6bR,8aS,11R,11aR,11bR,13aR,13bR)-8a-(((3-(1,1-dioxidothiomorpholino)propyl)amino)methyl)-4,4,6a,6b,13b-pentamethyl-11-(prop-1-en-2-yl)hexadecahydro-1H-cyclopenta[5,6]naphtho[2,1-f]isoquinolin-3(2H,4H,13bH)-yl)-2-oxoethyl)cyclopentyl)acetic acid], `C=C(C)[C@@H]1CC[C@]2(CNCCCN3CCS(=O)(=O)CC3)CC[C@]3(C)[C@H](CC[C@@H]4[C@@]5(C)CCN(c6ccc(C#N)nc6)C(C)(C)[C@@H]5CC[C@]43C)[C@@H]12` [Example 43, 5-((4aR,6aR,6bR,8aS,11R,11aR,11bR,13aR,13bR)-8a-(((3-(1,1-dioxidothiomorpholino)propyl)amino)methyl)-4,4,6a,6b,13b-pentamethyl-11-(prop-1-en-2-yl)hexadecahydro-1H-cyclopenta[5,6]naphtho[2,1-f]isoquinolin-3(2H,4H,13bH)-yl)picolinonitrile] is 2.2-fold higher in EC50: 0.13 µM for the first, 0.28 µM for the second. The first is the more potent here.

In the case of `C=C(C)[C@@H]1CC[C@]2(CO)CC[C@]3(C)[C@H](CC[C@@H]4[C@@]5(C)CCCN(S(=O)(=O)c6ccc(C(=O)O)o6)C(C)(C)C5CC[C@]43C)[C@@H]12` (stereo partly drawn) [Example 11, 5-(((7aR,7bR,9aS,12R,12aR,12bR,14aR,14bR)-9a-(hydroxymethyl)-5,5,7a,7b,14b-pentamethyl-12-(prop-1-en-2-yl)icosahydrocyclopenta[7,8]phenanthro[2,1-c]azepin-4(1H)-yl)sulfonyl)furan-2-carboxylic acid], the EC50 is reported as > 8 µM.
